Values of other authors as cited in US20110008431A1, “THERAPEUTIC TABLET FOR POSTHERPETIC NEURALGIA AND METHOD OF TREATING POSTHERPETIC NEURALGIA” (TOYO BOSEKI KABUSHIKI KAISHA, priority 2007, published 2011).

Tested on: patient with neuropathic pain
Details: devazepide in combination with an opioid analgesic agent such as morphine, Patent Document 1

CN1C(=O)[C@@H](NC(=O)c2cc3ccccc3[nH]2)N=C(c2ccccc2)c2ccccc21 [devazepide]
subjects who attained pain relief: 10 of 41
